In US20250163104A1, “MACROCYCLIC IMMUNOMODULATORS” (priority 2021, published 2025):
Where a SMILES comes first, the peptide text is derived from it. Bridges are numbered along the chain shown (N, C = ends). [ ]: non-standard residue; d: D form. The star is where a group is joined. ξ: configuration not given here. Bip(4'-COOH) = N[C@@H](Cc1ccc(-c2ccc(C(=O)O)cc2)cc1)C(=O)O; Phe(4-COOH) = N[C@@H](Cc1ccc(C(=O)O)cc1)C(=O)O; Bip = N[C@@H](Cc1ccc(-c2ccccc2)cc1)C(=O)O; Phe(3-CN) = N#Cc1cccc(C[C@H](N)C(=O)O)c1; Phe(3-OMe) = COc1cccc(C[C@H](N)C(=O)O)c1; Phe(3-Me) = Cc1cccc(C[C@H](N)C(=O)O)c1; Val(3-OH) = CC(C)(O)[C@H](N)C(=O)O; Hyp = O=C(O)[C@@H]1C[C@@H](O)CN1; 4Pal = N[C@@H](Cc1ccncc1)C(=O)O; Cha = N[C@@H](CC1CCCCC1)C(=O)O; Cit = NC(=O)NCCC[C@H](N)C(=O)O; Thr(3ξ) = CC(O)[C@H](N)C(=O)O; Carboxymethyl = O=C(O)C*; Orn = NCCC[C@H](N)C(=O)O; Dab = NCC[C@H](N)C(=O)O; Dap = NC[C@H](N)C(=O)O

target: T1, human PD-1 / PD-L1-Ig binding on Jurkat cell line over-expressing human PD-1 (Jurkat-PD-1) (Homo sapiens, UniProt Q15116); assay: Jurkat-PD-1 Cell Binding High-Content Screening Assay (CBA); type: cell-based; conditions: Jurkat-PD-1 cells, PE-labeled PD-L1-Ig 20 nM final; read-out: Jurkat HPD1_PDL1 IC50
T1 construct: expressed in transfected cells; host or cells: Jurkat
T1 sequence (Q15116 25-288): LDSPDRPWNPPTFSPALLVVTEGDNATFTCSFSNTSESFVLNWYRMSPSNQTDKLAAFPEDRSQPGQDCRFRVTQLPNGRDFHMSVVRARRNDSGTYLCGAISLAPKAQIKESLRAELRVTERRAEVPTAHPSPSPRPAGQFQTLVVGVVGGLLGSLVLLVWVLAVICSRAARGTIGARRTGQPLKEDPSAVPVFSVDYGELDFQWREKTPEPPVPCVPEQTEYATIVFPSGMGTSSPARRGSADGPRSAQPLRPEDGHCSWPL
In short: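 Read-out: high-content imaging of PE-tagged PD-L1-Ig bound to Jurkat cells overexpressing human PD-1, after fixation with 4% paraformaldehyde and Hoechst 33342 nuclear staining. Ligand was used at 20 nM final for 1 hour, after a 2 h compound exposure at 37° C in serum-containing DMEM.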

| SMILES | IC50 [nM] |
| --- | --- |
| Cc1cccc(C[C@@H]2NC(=O)[C@H](CC(=O)O)NC(=O)[C@H](Cc3ccc(C(=O)O)cc3)NC(=O)[C@H](Cc3ccncc3)NC(=O)CSC[C@@H](C(N)=O)NC(=O)[C@H]([C@@H](C)O)NC(=O)[C@H](C(C)C)NC(=O)[C@H](CC3CCCCC3)NC(=O)[C@H](CCN)NC(=O)[C@@H](CC(C)C)NC(=O)[C@H](CCCN)NC(=O)[C@H](C(C)C)NC(=O)[C@H](Cc3ccc(-c4ccccc4)cc3)NC(=O)[C@H](C(C)C)NC2=O)c1 [Compound 1548] ({CH2CO}-[4Pal][Phe(4-COOH)]D[Phe(3-Me)]V[Bip]V[Orn][dL][Dab][Cha]VTC-NH2; thioether N-14) | 18.4 |
| CC(C)C[C@H]1NC(=O)[C@H](CCCN)NC(=O)[C@H](CCC(=O)O)NC(=O)[C@H](Cc2ccc(-c3ccccc3)cc2)NC(=O)[C@H](C(C)C)NC(=O)[C@H](Cc2cccc(Cl)c2)NC(=O)[C@H](CC(=O)O)NC(=O)[C@H](Cc2ccc(OCC(=O)O)cc2)NC(=O)[C@H](CN)NC(=O)CSC[C@@H](C(=O)N[C@@H](C)C(N)=O)NC(=O)[C@H]([C@@H](C)O)NC(=O)[C@H](C(C)C)NC(=O)[C@H](CC2CCCCC2)NC(=O)[C@H](CCN)NC1=O [Compound 1495] | 5.8 |
| Cc1cccc(C[C@@H]2NC(=O)[C@H](CC(=O)O)NC(=O)[C@H](Cc3ccc(OCC(=O)O)cc3)NC(=O)[C@@H]3C[C@@H](O)CN3C(=O)CSC[C@@H](C(=O)N[C@@H](CCN)C(N)=O)NC(=O)[C@H](CO)NC(=O)[C@H](C(C)(C)O)NC(=O)[C@H](CC3CCCCC3)NC(=O)[C@H](CCN)NC(=O)[C@@H](CC(C)C)NC(=O)[C@H](CCCN)NC(=O)[C@H](Cc3ccc(OCC(=O)O)cc3)NC(=O)[C@H](Cc3ccc(-c4ccccc4)cc3)NC(=O)[C@H](Cc3ccc(OCC(=O)O)cc3)NC2=O)c1 [Compound 2059] ({CH2CO}-[Hyp]Y(Carboxymethyl)D[Phe(3-Me)]Y(Carboxymethyl)[Bip]Y(Carboxymethyl)[Orn][dL][Dab][Cha][Val(3-OH)]SC[Dab]-NH2; thioether N-14) | 356 |
| CC(C)C[C@H]1NC(=O)[C@H](CCCN)NC(=O)[C@H](CCC(=O)O)NC(=O)[C@H](Cc2ccc(-c3ccccc3)cc2)NC(=O)[C@H](C(C)C)NC(=O)[C@H](Cc2c[nH]c3ccccc23)NC(=O)[C@H](CC(=O)O)NC(=O)[C@H](Cc2ccc(-c3ccc(C(=O)O)cc3)cc2)NC(=O)[C@H](Cc2ccccc2)NC(=O)CSC[C@@H](C(=O)N[C@@H](C)C(N)=O)NC(=O)[C@H]([C@@H](C)O)NC(=O)[C@H](C(C)C)NC(=O)[C@H](CC2CCCCC2)NC(=O)[C@H](CCN)NC1=O [Compound 2167] ({CH2CO}-F[Bip(4'-COOH)]DWV[Bip]E[Orn][dL][Dab][Cha]VTCA-NH2; thioether N-14) | 17.2 |
| Cc1cccc(C[C@@H]2NC(=O)[C@H](CC(=O)O)NC(=O)[C@H](Cc3cccc(C#N)c3)NC(=O)[C@H](Cc3ccncc3)NC(=O)CSC[C@@H](C(=O)N[C@@H](CCN)C(N)=O)NC(=O)[C@H](CO)NC(=O)[C@H](C(C)(C)O)NC(=O)[C@H](CC3CCCCC3)NC(=O)[C@H](CCN)NC(=O)[C@@H](CC(C)C)NC(=O)[C@H](CCCN)NC(=O)[C@H](Cc3ccc(OCC(=O)O)cc3)NC(=O)[C@H](Cc3ccc(-c4ccccc4)cc3)NC(=O)[C@H](Cc3ccc(C(=O)O)cc3)NC2=O)c1 [Compound 2626] ({CH2CO}-[4Pal][Phe(3-CN)]D[Phe(3-Me)][Phe(4-COOH)][Bip]Y(Carboxymethyl)[Orn][dL][Dab][Cha][Val(3-OH)]SC[Dab]-NH2; thioether N-14) | 10.7 |
| CC(C)C[C@H]1NC(=O)[C@H](CCCN)NC(=O)[C@H](CCCNC(N)=O)NC(=O)[C@H](Cc2ccc(-c3ccccc3)cc2)NC(=O)[C@H](C(C)C)NC(=O)[C@H](Cc2c[nH]c3ccccc23)NC(=O)[C@H](CC(=O)O)NC(=O)[C@H](Cc2ccc(C(=O)O)cc2)NC(=O)[C@H](Cc2ccc(OCC(=O)O)cc2)NC(=O)CSC[C@@H](C(=O)N[C@@H](C)C(N)=O)NC(=O)[C@H]([C@@H](C)O)NC(=O)[C@H](C(C)C)NC(=O)[C@H](Cc2ccc(O)cc2)NC(=O)[C@H](CCN)NC1=O [Compound 1684] ({CH2CO}-Y(Carboxymethyl)[Phe(4-COOH)]DWV[Bip][Cit][Orn][dL][Dab]YVTCA-NH2; thioether N-14) | 120 |
| CC(C)C[C@H]1NC(=O)[C@H](CCCN)NC(=O)[C@H](CCCNC(N)=O)NC(=O)[C@H](Cc2ccc(-c3ccccc3)cc2)NC(=O)[C@H](C(C)C)NC(=O)[C@H](Cc2c[nH]c3ccccc23)NC(=O)[C@H](CC(=O)O)NC(=O)[C@H](Cc2ccc(OCC(=O)O)cc2)NC(=O)[C@H](Cc2ccc(OCC(=O)O)cc2)NC(=O)CSC[C@@H](C(=O)N[C@@H](C)C(N)=O)NC(=O)[C@H]([C@@H](C)O)NC(=O)[C@H](C(C)C)NC(=O)[C@H](Cc2ccccc2)NC(=O)[C@H](CCN)NC1=O [Compound 1665] ({CH2CO}-Y(Carboxymethyl)Y(Carboxymethyl)DWV[Bip][Cit][Orn][dL][Dab]FVTCA-NH2; thioether N-14) | 17 |
| Cc1cccc(C[C@@H]2NC(=O)[C@H](CC(=O)O)NC(=O)[C@H](Cc3ccc(OCC(=O)O)cc3)NC(=O)[C@H](C(C)O)NC(=O)CSC[C@@H](C(=O)N[C@@H](CCN)C(N)=O)NC(=O)[C@H](CO)NC(=O)[C@H](C(C)(C)O)NC(=O)[C@H](CC3CCCCC3)NC(=O)[C@H](CCN)NC(=O)[C@@H](CC(C)C)NC(=O)[C@H](CCCN)NC(=O)[C@H](Cc3ccc(OCC(=O)O)cc3)NC(=O)[C@H](Cc3ccc(-c4ccccc4)cc3)NC(=O)[C@H](Cc3ccc(C(=O)O)cc3)NC2=O)c1 (stereo partly drawn) [Compound 2634] ({CH2CO}-[Thr(3ξ)]Y(Carboxymethyl)D[Phe(3-Me)][Phe(4-COOH)][Bip]Y(Carboxymethyl)[Orn][dL][Dab][Cha][Val(3-OH)]SC[Dab]-NH2; thioether N-14) | 4.7 |
| CC(C)C[C@@H]1NC(=O)[C@H](CCN)NC(=O)[C@@H](CC(C)C)NC(=O)[C@H](CCCN)NC(=O)[C@H](CCCNC(N)=O)NC(=O)[C@H](Cc2ccc(-c3ccccc3)cc2)NC(=O)[C@H](C(C)C)NC(=O)[C@H](Cc2c[nH]c3ccccc23)NC(=O)[C@H](CC(=O)O)NC(=O)[C@H](Cc2ccc(OCC(=O)O)cc2)NC(=O)[C@H](Cc2ccc(OCC(=O)O)cc2)NC(=O)CSC[C@@H](C(=O)N[C@@H](C)C(N)=O)NC(=O)[C@H]([C@@H](C)O)NC(=O)[C@H](C(C)C)NC1=O [Compound 1247] ({CH2CO}-Y(Carboxymethyl)Y(Carboxymethyl)DWV[Bip][Cit][Orn][dL][Dab]LVTCA-NH2; thioether N-14) | 19.7 |
| CC(C)C[C@@H]1NC(=O)[C@H](Cc2c[nH]c3ccccc23)NC(=O)[C@H](CC(=O)O)NC(=O)[C@H](Cc2ccc(OCC(=O)O)cc2)NC(=O)[C@H](CN)NC(=O)CSC[C@@H](C(=O)NCC(N)=O)NC(=O)[C@H](CO)NC(=O)[C@H](C(C)C)NC(=O)[C@H](CC(C)C)NC(=O)[C@H](CCN)NC(=O)[C@@H](CC(C)C)NC(=O)[C@H](CCCN)NC(=O)[C@H](C(C)C)NC(=O)[C@H](Cc2ccc(-c3ccccc3)cc2)NC1=O [Compound 1257] ({CH2CO}-[Dap]Y(Carboxymethyl)DWL[Bip]V[Orn][dL][Dab]LVSCG-NH2; thioether N-14) | 5.6 |
| COc1cccc(C[C@@H]2NC(=O)[C@H](CC(=O)O)NC(=O)[C@H](Cc3ccc(C(=O)O)cc3)NC(=O)[C@H](Cc3ccncc3)NC(=O)CSC[C@@H](C(=O)N[C@@H](C)C(N)=O)NC(=O)[C@H]([C@@H](C)O)NC(=O)[C@H](C(C)C)NC(=O)[C@H](CC(C)C)NC(=O)[C@H](CCN)NC(=O)[C@@H](CC(C)C)NC(=O)[C@H](CCCN)NC(=O)[C@H](C(C)C)NC(=O)[C@H](Cc3ccc(-c4ccccc4)cc3)NC(=O)[C@H](C(C)C)NC2=O)c1 [Compound 1183] ({CH2CO}-[4Pal][Phe(4-COOH)]D[Phe(3-OMe)]V[Bip]V[Orn][dL][Dab]LVTCA-NH2; thioether N-14) | 6.1 |
| CC(C)C[C@@H]1NC(=O)[C@H](CCN)NC(=O)[C@@H](CC(C)C)NC(=O)[C@H](CCCN)NC(=O)[C@H](CCCNC(=N)N)NC(=O)[C@H](Cc2ccc(-c3ccccc3)cc2)NC(=O)[C@H](C(C)C)NC(=O)[C@H](Cc2c[nH]c3ccccc23)NC(=O)[C@H](CC(=O)O)NC(=O)[C@H](Cc2ccc(O)cc2)NC(=O)[C@H](CC(N)=O)NC(=O)CSC[C@@H](C(=O)N[C@@H](C)C(N)=O)NC(=O)[C@H]([C@@H](C)O)NC(=O)[C@H](C(C)C)NC1=O [Compound 1005] ({CH2CO}-NYDWV[Bip]R[Orn][dL][Dab]LVTCA-NH2; thioether N-14) | 35.8 |
| Cc1cccc(C[C@@H]2NC(=O)[C@H](CC(=O)O)NC(=O)[C@H](Cc3ccc(OCC(=O)O)cc3)NC(=O)[C@H](Cc3ccc(OCC(=O)O)cc3)NC(=O)CSC[C@@H](C(=O)NCC(N)=O)NC(=O)[C@H](CO)NC(=O)[C@H](C(C)C)NC(=O)[C@H](CC(C)C)NC(=O)[C@H](CCN)NC(=O)[C@@H](CC(C)C)NC(=O)[C@H](CCCN)NC(=O)[C@H](C(C)C)NC(=O)[C@H](Cc3ccc(-c4ccccc4)cc3)NC(=O)[C@H](CC(C)C)NC2=O)c1 [Compound 1262] ({CH2CO}-Y(Carboxymethyl)Y(Carboxymethyl)D[Phe(3-Me)]L[Bip]V[Orn][dL][Dab]LVSCG-NH2; thioether N-14) | 4.6 |
| CC(C)C[C@H]1NC(=O)[C@H](CCCN)NC(=O)[C@H](CCCNC(N)=O)NC(=O)[C@H](Cc2ccc(-c3ccccc3)cc2)NC(=O)[C@H](C(C)C)NC(=O)[C@H](Cc2c[nH]c3ccccc23)NC(=O)[C@H](CC(=O)O)NC(=O)[C@H](Cc2ccc(OCC(=O)O)cc2)NC(=O)[C@H](Cc2ccc(OCC(=O)O)cc2)NC(=O)CSC[C@@H](C(=O)N[C@@H](C)C(N)=O)NC(=O)[C@H]([C@@H](C)O)NC(=O)[C@H](C(C)C)NC(=O)[C@H](Cc2ccc(O)cc2)NC(=O)[C@H](CCN)NC1=O [Compound 1685] ({CH2CO}-Y(Carboxymethyl)Y(Carboxymethyl)DWV[Bip][Cit][Orn][dL][Dab]YVTCA-NH2; thioether N-14) | 175 |
